{"source": "patent US6329342A", "about": "“Treatment of congestive heart failure with growth hormone secretagogues” (Eli Lilly and Company, priority 2000, dated 2001)", "key": {"Pituitary cells": {"test_system": "Pituitary cells", "test": "Pituitary Cell Culture Assay for Growth Hormone Secretion", "assay_type": "cell-based, rat (male Sprague-Dawley)", "details": "0.25 h, read-out: GH secretion EC50; heading: GH secretion EC50; rat anterior pituitary cells, 15 min at 37° C.; Examples Part 1", "excerpt": "Thirty-two 250 g male Sprague-Dawley rats were used for each assay. The animals were killed by decapitation and anterior pituitaries were removed and placed into ice cold culture medium. The pituitaries were sectioned into eighths and enzymatically digested using trypsin (Sigma Chemical) to weaken connective tissue. Pituitary cells were dispersed by mechanical agitation, collected, pooled and then seeded into 24-well plates (300,000 cells/well). After 4 days of culture, the cells formed an even monolayer. Cells were then washed with medium and challenged to secrete GH by the addition of GH secretagogues to the medium. After 15 min at 37° C., the medium was removed and stored frozen until radioimmunoassays for rat GH were performed. Doses of secretagogue were added in quadruplicate. Compounds disclosed herein are active in the assay as described. Both EC50 and efficacy values were calculated by the 4-parameter logistic equation. Such values were pooled and represented as mean +/- standard error, when appropriate."}, "heart failure": {"test_system": "heart failure", "details": "cited from earlier work"}}, "data": [{"molecule": "COC(=O)[C@@H]1CCCN1C(=O)C(c1ccccc1)n1cnc(NC(=O)[C@H](COCc2ccccc2)NC(=O)C(C)(C)N)c1", "note": "(stereo partly drawn) [Example 8]", "values": [{"measurement": "EC50", "setting": "Pituitary cells", "result": 2.39, "unit": "µM"}]}, {"molecule": "COc1ccccc1OCCNCC(O)COc1cccc2[nH]c3ccccc3c12", "note": "(stereo not drawn) [Carvedilol]", "values": [{"measurement": "mortality in patients", "setting": "heart failure", "result": "dramatic reductions in mortality in patients"}]}, {"molecule": "COC(=O)[C@@H]1CCCN1C(=O)C(c1ccccc1)n1cnc(NC(=O)[C@@H](COCc2ccccc2)NC(=O)C(C)(C)N)c1", "note": "(stereo partly drawn) [Example 6]", "values": [{"measurement": "EC50", "setting": "Pituitary cells", "result": 5.53, "unit": "µM"}]}]}
